Data on 28 molecules can be found in US8063048B2, “Acetylenyl-pyrazolo-pyrimidine derivatives” (Hoffmann-La Roche Inc., priority 2005, dated 2011).

Each structure is given as a SMILES string.

As usually defined, the melting point is the temperature, or range, at which the solid turns liquid. `Cc1ccc(C#Cc2cnn3c(C(F)(F)F)cc(-c4ccc(C(F)(F)F)cc4)nc23)cc1S(N)(=O)=O` [Example 35, 2-Methyl-5-[7-trifluoromethyl-5-(4-trifluoromethyl-phenyl)-pyrazolo[1,5-a]pyrimidin-3-ylethynyl]-benzenesulfonamide] gave a melting point of 255 to 267 °C.

Consider `O=S(=O)(c1cncc(C#Cc2cnn3c(C(F)(F)F)cc(-c4ccc(C(F)(F)F)cc4)nc23)c1)N(CCO)CCO` [Example 13, 5-[7-Trifluoromethyl-5-(4-trifluoromethyl-phenyl)-pyrazolo[1,5-a]pyrimidin-3-ylethynyl]-pyridine-3-sulfonic acid bis-(2-hydroxy-ethyl)-amide], for which the melting point was 173 to 178 °C.

With `N#Cc1cc(C#Cc2cnn3c(C(F)F)cc(-c4ccc(C(F)(F)F)cc4)nc23)cnc1N` [Example 218, 2-Amino-5-[7-difluoromethyl-5-(4-trifluoromethyl-phenyl)-pyrazolo[1,5-a]pyrimidin-3-ylethynyl]-nicotinonitrile], the melting point worked out at 255 °C. For `CN(C)CCNS(=O)(=O)c1cccc(C#Cc2cnn3c(C(F)(F)F)cc(-c4ccc(C(F)(F)F)cc4)nc23)c1` [Example 133, N-(2-Dimethylamino-ethyl)-3-[7-trifluoromethyl-5-(4-trifluoromethyl-phenyl)-pyrazolo[1,5-a]pyrimidin-3-ylethynyl]-benzenesulfonamide] the value was 146 to 147 °C. As to `NS(=O)(=O)c1ccc(C#Cc2ncn3c(C(F)F)cc(-c4ccc(C(F)(F)F)cc4)nc23)cc1` [Example 276, 4-[4-Difluoromethyl-2-(4-trifluoromethyl-phenyl)-imidazo[1,5-a]pyrimidin-8-ylethynyl]-benzenesulfonamide], the melting point amounted to 282 °C.

As to `CN(C)S(=O)(=O)c1ccc(C#Cc2cnn3c(C(F)(F)F)cc(-c4ccc(C(F)(F)F)cc4)nc23)cc1` [Example 121, N,N-Dimethyl-4-[7-trifluoromethyl-5-(4-trifluoromethyl-phenyl)-pyrazolo[1,5-a]pyrimidin-3-ylethynyl]-benzenesulfonamide], the melting point was 226 to 227 °C. For `O=S(=O)(c1ccc(C#Cc2cnn3c(C(F)(F)F)cc(-c4ccc(C(F)(F)F)cc4)nc23)s1)N1CCNCC1` [Example 260, 3-[5-(piperazine-1-sulfonyl)-thiophen-2-ylethynyl]-7-trifluoromethyl-5-(4-trifluoromethyl-phenyl)-pyrazolo[1,5-a]pyrimidine] the value was 223 °C; for `CCOc1cc(-c2cc(C(F)(F)F)n3ncc(C#Cc4ccc(N)nc4)c3n2)ccc1C(F)(F)F` [Example 189, 5-[5-(3-Ethoxy-4-trifluoromethyl-phenyl)-7-trifluoromethyl-pyrazolo[1,5-a]pyrimidin-3-ylethynyl]-pyridin-2-ylamine], 218 °C. For the molecule `O=S(=O)(c1ccc(C#Cc2cnn3c(C(F)(F)F)cc(-c4ccc(C(F)(F)F)cc4)nc23)s1)N(CCO)CCO` [Example 162, 5-[7-Trifluoromethyl-5-(4-trifluoromethyl-phenyl)-pyrazolo[1,5-a]pyrimidin-3-ylethynyl]-thiophene-2-sulfonic acid bis-(2-hydroxy-ethyl)-amide], the melting point was 137 °C.

`CC(O)c1ccc(C#Cc2cnc3c(C(F)(F)F)cc(-c4ccc(C(F)(F)F)cc4)cn23)cc1` (stereo not shown) [Example 195, 1-{4-[8-Trifluoromethyl-6-(4-trifluoromethyl-phenyl)-imidazo[1,2-a]pyridin-3-ylethynyl]-phenyl}-ethanol]: the melting point fell in the range of 157 to 158 °C. The molecule `O=S(=O)(O)c1cncc(C#Cc2cnn3c(C(F)(F)F)cc(-c4ccc(C(F)(F)F)cc4)nc23)c1` [Example 37, 5-[7-Trifluoromethyl-5-(4-trifluoromethyl-phenyl)-pyrazolo[1,5-a]pyrimidin-3-ylethynyl]-pyridine-3-sulfonic acid] came in with a melting point of over 288 °C.

Take `CC(C)(CO)NS(=O)(=O)c1cncc(C#Cc2cnn3c(C4CC4)cc(-c4ccc(Cl)cc4)nc23)c1` [Example 67, 5-[5-(4-Chloro-phenyl)-7-cyclopropyl-pyrazolo[1,5-a]pyrimidin-3-ylethynyl]-pyridine-3-sulfonic acid (2-hydroxy-1,1-dimethyl-ethyl)-amide]: the melting point fell in the range of 230 to 231 °C. In turn, `CC(C)(CO)NS(=O)(=O)c1cccc(C#Cc2cnn3c(C(F)(F)F)cc(-c4ccc(Cl)cc4)nc23)c1` [Example 95, 3-[5-(4-Chloro-phenyl)-7-trifluoromethyl-pyrazolo[1,5-a]pyrimidin-3-ylethynyl]-N-(2-hydroxy-1,1-dimethyl-ethyl)-benzenesulfonamide] displayed a melting point of 226 to 229 °C. As for `O=S(=O)(c1ccc(C#Cc2cnn3c(C(F)(F)F)cc(-c4cccc(C(F)(F)F)c4)nc23)s1)N1CCNCC1` [Example 261, 3-[5-(piperazine-1-sulfonyl)-thiophen-2-ylethynyl]-7-trifluoromethyl-5-(3-trifluoromethyl-phenyl)-pyrazolo[1,5-a]pyrimidine], the melting point was 160 °C. `NS(=O)(=O)c1ccc(C#Cc2cnn3c(C(F)F)cc(-c4ccc(C(F)(F)F)cc4)nc23)s1` [Example 164, 5-[7-Difluoromethyl-5-(4-trifluoromethyl-phenyl)-pyrazolo[1,5-a]pyrimidin-3-ylethynyl]-thiophene-2-sulfonic acid amide] yielded a melting point of 210 °C. As to `CC(CO)NS(=O)(=O)c1cncc(C#Cc2cnn3c(C(F)(F)F)cc(-c4ccc(C(F)(F)F)cc4)nc23)c1` (stereo not shown) [Example 28, 5-[7-Trifluoromethyl-5-(4-trifluoromethyl-phenyl)-pyrazolo[1,5-a]pyrimidin-3-ylethynyl]-pyridine-3-sulfonic acid (2-hydroxy-1-methyl-ethyl)-amide], the melting point was in the range of 225 to 226 °C. Molecule `NCCNS(=O)(=O)c1ccc(C#Cc2cnn3c(C(F)(F)F)cc(-c4ccc(C(F)(F)F)cc4)nc23)s1` [Example 263, 5-[7-Trifluoromethyl-5-(4-trifluoromethyl-phenyl)-pyrazolo[1,5-a]pyrimidin-3-ylethynyl]-thiophene-2-sulfonic acid (2-amino-ethyl)-amide] showed a melting point of 161 °C.

`Cc1cc(-c2cc(C(F)(F)F)n3ncc(C#Cc4ncc(S(N)(=O)=O)s4)c3n2)ccc1Cl` [Example 104, 2-[5-(4-Chloro-3-methyl-phenyl)-7-trifluoromethyl-pyrazolo[1,5-a]pyrimidin-3-ylethynyl]-thiazole-5-sulfonic acid amide] displayed a melting point of 123 °C. As for `CN1CCN(S(=O)(=O)c2ccc(C#Cc3cnn4c(C(F)F)cc(-c5cccc(C(F)(F)F)c5)nc34)s2)CC1` [Example 248, 7-Difluoromethyl-3-[5-(4-methyl-piperazine-1-sulfonyl)-thiophen-2-ylethynyl]-5-(3-trifluoromethyl-phenyl)-pyrazolo[1,5-a]pyrimidine], the melting point was 214 °C. In the case of `Nc1ncc(C#Cc2cnn3c(C(F)F)cc(-c4ccc(C(F)(F)F)cc4)nc23)cn1` [Example 213, 5-[7-Difluoromethyl-5-(4-trifluoromethyl-phenyl)-pyrazolo[1,5-a]pyrimidin-3-ylethynyl]-pyrimidin-2-ylamine], the melting point lay within 242 to 243 °C.

Molecule `CC(C)(C)NS(=O)(=O)c1cncc(C#Cc2cnn3c(C(F)(F)F)cc(-c4ccc(C(F)(F)F)cc4)nc23)c1` [Example 17, 5-[7-Trifluoromethyl-5-(4-trifluoromethyl-phenyl)-pyrazolo[1,5-a]pyrimidin-3-ylethynyl]-pyridine-3-sulfonic acid tert-butylamide] displayed a melting point of 224 °C. In turn, `NS(=O)(=O)c1cncc(C#Cc2cnn3c(C4CC4)cc(-c4ccc(C(F)(F)F)cc4)nc23)c1` [Example 79, 5-[7-Cyclopropyl-5-(4-trifluoromethyl-phenyl)-pyrazolo[1,5-a]pyrimidin-3-ylethynyl]-pyridine-3-sulfonic acid amide] had a melting point of 276 to 277 °C. Take `Cc1cc(-c2cc(C(F)(F)F)n3ncc(C#Cc4ccc(N)nc4)c3n2)ccc1C(F)(F)F` [Example 289, 5-[5-(3-Methyl-4-trifluoromethyl-phenyl)-7-trifluoromethyl-pyrazolo[1,5-a]pyrimidin-3-ylethynyl]-pyridin-2-ylamine]: the melting point is 201 °C. As to `CC(C)(CO)NS(=O)(=O)c1ccc(C#Cc2cnn3c(C(F)F)cc(-c4cccc(C(F)(F)F)c4)nc23)s1` [Example 170, 5-[7-Difluoromethyl-5-(3-trifluoromethyl-phenyl)-pyrazolo[1,5-a]pyrimidin-3-ylethynyl]-thiophene-2-sulfonic acid (2-hydroxy-1,1-dimethyl-ethyl)-amide], the melting point was found to be 168 °C.

For the molecule `CNS(=O)(=O)c1ccc(C#Cc2cnn3c(C(F)(F)F)cc(-c4ccc(C(F)(F)F)cc4)nc23)cc1` [Example 123, N-Methyl-4-[7-trifluoromethyl-5-(4-trifluoromethyl-phenyl)-pyrazolo[1,5-a]pyrimidin-3-ylethynyl]-benzenesulfonamide], the melting point was 231 to 233 °C. Molecule `NS(=O)(=O)c1cnc(C#Cc2cnn3c(C(F)(F)F)cc(-c4ccc(C(F)(F)F)cc4)nc23)s1` [Example 29, 2-[7-Trifluoromethyl-5-(4-trifluoromethyl-phenyl)-pyrazolo[1,5-a]pyrimidin-3-ylethynyl]-thiazole-5-sulfonic acid amide] registered a melting point of 235 °C. With `CC(C)(C)NS(=O)(=O)c1ccc(C#Cc2cnn3c(C(F)F)cc(-c4ccc(C(F)(F)F)cc4)nc23)s1` [Example 165, 5-[7-Difluoromethyl-5-(4-trifluoromethyl-phenyl)-pyrazolo[1,5-a]pyrimidin-3-ylethynyl]-thiophene-2-sulfonic acid tert-butylamide], the melting point came to 187 °C. Molecule `CC(CO)(CO)NS(=O)(=O)c1cccc(C#Cc2cnn3c(C(F)F)cc(-c4ccc(C(F)(F)F)cc4)nc23)c1` [Example 33, 3-[7-Difluoromethyl-5-(4-trifluoromethyl-phenyl)-pyrazolo[1,5-a]pyrimidin-3-ylethynyl]-N-(2-hydroxy-1-hydroxymethyl-1-methyl-ethyl)-benzene sulfonamide] returned a melting point of 172 to 174 °C.
